Measured values: patent EP1369415A1, “Substituted pyrrolyl compounds for the treatment of inflammation” (G.D. SEARLE & CO., priority 1996, dated 1998)

Legend:
COX-1 = COX-1 (Homo sapiens, UniProt P23219); type: biochemical, human or murine
[1] = Analgesia (Table I; method not described); type: in vivo; conditions: @ 30mg/kg body weight
carrageenan foot edema = test: Rat Carrageenan Foot Pad Edema Test; type: in vivo, Male Sprague-Dawley rats; conditions: @ 30mg/kg body weight; dosed orally one hour before carrageenan; foot volume three hours after injection

Sequence of COX-1 (P23219 24-599): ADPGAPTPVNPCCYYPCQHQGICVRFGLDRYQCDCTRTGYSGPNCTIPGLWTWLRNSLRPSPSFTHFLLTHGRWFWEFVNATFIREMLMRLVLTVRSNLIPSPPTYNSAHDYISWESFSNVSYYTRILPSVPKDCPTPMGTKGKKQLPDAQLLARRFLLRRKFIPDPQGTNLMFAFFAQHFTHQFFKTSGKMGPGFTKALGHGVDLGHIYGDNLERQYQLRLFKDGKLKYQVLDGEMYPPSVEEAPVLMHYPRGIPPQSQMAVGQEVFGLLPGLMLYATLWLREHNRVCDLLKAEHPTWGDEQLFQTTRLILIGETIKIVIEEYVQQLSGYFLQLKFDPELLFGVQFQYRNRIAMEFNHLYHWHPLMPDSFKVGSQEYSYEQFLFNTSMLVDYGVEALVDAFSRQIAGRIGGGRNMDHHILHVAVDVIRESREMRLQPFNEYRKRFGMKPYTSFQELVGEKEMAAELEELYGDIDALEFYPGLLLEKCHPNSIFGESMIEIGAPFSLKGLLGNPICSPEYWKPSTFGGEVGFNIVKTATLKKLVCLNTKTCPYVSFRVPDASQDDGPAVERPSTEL

SMILES	IC50 (COX-1)	ANALGESIA % Inhibition [1]	RAT PAW EDEMA % Inhibition (carrageenan foot edema)
NS(=O)(=O)c1ccc(-n2cccc2-c2ccc(F)cc2)cc1 [Example 9, 4-[2-(4-Fluorophenyl)-1H-pyrrol-1-yl]benzenesulfonamide]	10.4 µM	–	–
CS(=O)(=O)c1ccc(-n2cccc2-c2ccc(F)cc2)cc1 [Example 8, 2-(4-Fluorophenyl)-1-[4-(methylsulfonyl)phenyl]-1H-pyrrole]	–	47%	56%
